pIC50: −log10 of the molar value. Activity calls are given as the source filed them. No cut-off for these calls is given here.
Assays:
T-cell = assay: Antiproliferative activity against concanavalin A-stimulated C57BL/6 mouse T cells measured after 48 hrs by CCK8 assay; assay type: functional, cell-based; conditions: C57BL/6, T-cell
Pyruvate kinase PKM = Pyruvate kinase PKM (Homo sapiens, UniProt P14618); assay: Activation of recombinant human PKM2 incubated for 40 mins by pyruvate kinase assay
Mus musculus = assay: Antiinflammatory activity in DSS-induced colitis female C57BL/6 mouse model assessed as reduction in shortening of colon length at 200 mg/kg, ip administered for 12 days with subsequent treatment of DSS for 9 days followed by drinking water for 3 days; assay type: functional, organism-based; conditions: time 12.0 day

Chain of Pyruvate kinase PKM (P14618 whole entry): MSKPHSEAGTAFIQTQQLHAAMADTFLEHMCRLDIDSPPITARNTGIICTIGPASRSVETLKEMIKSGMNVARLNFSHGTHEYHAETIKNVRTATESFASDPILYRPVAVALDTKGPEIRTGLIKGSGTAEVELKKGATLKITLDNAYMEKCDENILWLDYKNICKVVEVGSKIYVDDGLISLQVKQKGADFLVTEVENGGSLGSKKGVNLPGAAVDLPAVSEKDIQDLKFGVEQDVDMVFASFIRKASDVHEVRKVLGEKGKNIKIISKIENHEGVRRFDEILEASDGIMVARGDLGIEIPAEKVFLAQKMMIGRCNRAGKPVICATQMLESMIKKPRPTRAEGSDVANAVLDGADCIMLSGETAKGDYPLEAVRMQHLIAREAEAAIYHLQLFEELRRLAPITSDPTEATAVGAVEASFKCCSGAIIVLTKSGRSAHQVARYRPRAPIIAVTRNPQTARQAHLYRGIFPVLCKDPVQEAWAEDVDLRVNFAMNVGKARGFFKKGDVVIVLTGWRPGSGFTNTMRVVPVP

C=C1C(=O)O[C@H]2[C@H]1CC/C(CNS(=O)(=O)c1ccc([N+](=O)[O-])cc1)=C\CC[C@@]1(C)O[C@@H]21
pIC50 (T-cell): 5.88
AC50 (Pyruvate kinase PKM): 966 nM

C/C1=C\CC[C@@]2(C)O[C@H]2[C@H]2OC(=O)/C(=C/c3cccc4ccccc34)[C@@H]2CC1
pIC50 (T-cell): 5.34

C=C1C(=O)O[C@H]2[C@H]1CC/C(COC(=O)NOC)=C\CC[C@@]1(C)O[C@@H]21
pIC50 (T-cell): 5.63
AC50 (Pyruvate kinase PKM): > 3000 nM

C=C1C(=O)O[C@H]2[C@H]1CC/C(COC(=O)N(C)C)=C\CC[C@@]1(C)O[C@@H]21
pIC50 (T-cell): 5.79
AC50 (Pyruvate kinase PKM): 1570 nM

C=C1C(=O)O[C@H]2[C@H]1CC/C(COC(=O)N1CCN(C)CC1)=C\CC[C@@]1(C)O[C@@H]21
pIC50 (T-cell): 5.98
AC50 (Pyruvate kinase PKM): 567 nM

C=C1C(=O)O[C@H]2[C@H]1CC/C(C=O)=C\CC[C@@]1(C)O[C@@H]21
pIC50 (T-cell): < 5.00

C=C1C(=O)O[C@H]2[C@H]1CC/C(CNS(=O)(=O)CC)=C\CC[C@@]1(C)O[C@@H]21
pIC50 (T-cell): 5.53
AC50 (Pyruvate kinase PKM): > 3000 nM

C=C1C(=O)O[C@H]2[C@H]1CC/C(COC(=O)NCC)=C\CC[C@@]1(C)O[C@@H]21
pIC50 (T-cell): 5.77
AC50 (Pyruvate kinase PKM): 2220 nM

C=C1C(=O)O[C@H]2[C@H]1CC/C(CNS(C)(=O)=O)=C\CC[C@@]1(C)O[C@@H]21
pIC50 (T-cell): 5.50
AC50 (Pyruvate kinase PKM): > 3000 nM

C=C1C(=O)O[C@H]2[C@H]1CC/C(CNS(=O)(=O)c1ccc(OC)cc1)=C\CC[C@@]1(C)O[C@@H]21
pIC50 (T-cell): 5.98
AC50 (Pyruvate kinase PKM): 492 nM

C=C1C(=O)O[C@H]2[C@H]1CC/C(CNS(=O)(=O)C(F)(F)F)=C\CC[C@@]1(C)O[C@@H]21
pIC50 (T-cell): 5.53
AC50 (Pyruvate kinase PKM): > 3000 nM

C=C1C(=O)O[C@H]2[C@H]1CC/C(COC(=O)NC)=C\CC[C@@]1(C)O[C@@H]21
pIC50 (T-cell): 5.59
AC50 (Pyruvate kinase PKM): > 3000 nM

C=C1C(=O)O[C@H]2[C@H]1CC/C(COC(=O)N(CCC)CCC)=C\CC[C@@]1(C)O[C@@H]21
pIC50 (T-cell): 5.93
AC50 (Pyruvate kinase PKM): 660 nM

C=C1C(=O)O[C@H]2[C@H]1CC/C(COC)=C\CC[C@@]1(C)O[C@@H]21
pIC50 (T-cell): 5.63
AC50 (Pyruvate kinase PKM): > 3000 nM

C=C1C(=O)O[C@H]2[C@H]1CC/C(COC(=O)NCCN(CC)CC)=C\CC[C@@]1(C)O[C@@H]21
pIC50 (T-cell): 5.60
AC50 (Pyruvate kinase PKM): > 3000 nM

C=C1C(=O)O[C@@H]2C3O[C@]3(C)CC/C=C(\C)CC[C@@H]12 (some centres undefined)
pIC50 (T-cell): 5.71
AC50 (Pyruvate kinase PKM): 1060 nM

C=C1C(=O)O[C@H]2[C@H]1CC/C(COC(=O)N1CCN(CC)CC1)=C\CC[C@@]1(C)O[C@@H]21
pIC50 (T-cell): 5.63
AC50 (Pyruvate kinase PKM): > 3000 nM

C=C1C(=O)O[C@H]2[C@H]1CC/C(CNS(=O)(=O)C1CC1)=C\CC[C@@]1(C)O[C@@H]21
pIC50 (T-cell): 5.58
AC50 (Pyruvate kinase PKM): > 3000 nM

C=C1C(=O)O[C@H]2[C@H]1CC/C(CO)=C\CC[C@@]1(C)O[C@@H]21
pIC50 (T-cell): 5.80
AC50 (Pyruvate kinase PKM): 867 nM

C=C1C(=O)O[C@H]2[C@H]1CC/C(COC(=O)NCCN(C)C)=C\CC[C@@]1(C)O[C@@H]21
pIC50 (T-cell): 5.54
AC50 (Pyruvate kinase PKM): > 3000 nM

COc1ccc(/C=C2/C(=O)O[C@H]3[C@H]2CC/C(C)=C/CC[C@@]2(C)O[C@@H]32)cc1
pIC50 (T-cell): 5.34

C=C1C(=O)O[C@H]2[C@H]1C[C@@H](O)/C(C)=C/CC[C@@]1(C)O[C@@H]21
pIC50 (T-cell): 5.46

C=C1C(=O)O[C@H]2[C@H]1CC/C(C(=O)O)=C\CC[C@@]1(C)O[C@@H]21
pIC50 (T-cell): < 5.00

C=C1C(=O)O[C@H]2[C@H]1CC/C(CNS(=O)(=O)c1ccccc1)=C\CC[C@@]1(C)O[C@@H]21
pIC50 (T-cell): 5.92
AC50 (Pyruvate kinase PKM): 637 nM

C=C1C(=O)O[C@H]2[C@H]1C[C@@H](Br)/C(C)=C/CC[C@@]1(C)O[C@@H]21
pIC50 (T-cell): 5.42

C=C1C(=O)O[C@H]2[C@H]1CC/C(CNS(=O)(=O)c1ccc(F)cc1)=C\CC[C@@]1(C)O[C@@H]21
pIC50 (T-cell): 5.82
AC50 (Pyruvate kinase PKM): 1230 nM

Nc1ccc(O)c(C(=O)O)c1
Activity (Mus musculus): Active

C=C1C(=O)O[C@H]2[C@H]1CC/C(COC(=O)NCCC)=C\CC[C@@]1(C)O[C@@H]21
pIC50 (T-cell): 5.90
AC50 (Pyruvate kinase PKM): 812 nM

C/C1=C\CC[C@@]2(C)O[C@H]2[C@H]2OC(=O)/C(=C/c3ccccc3)[C@@H]2CC1
pIC50 (T-cell): 5.37

C=C1C(=O)O[C@H]2[C@H]1C[C@@H](F)/C(C)=C/CC[C@@]1(C)O[C@@H]21
pIC50 (T-cell): 5.63
AC50 (Pyruvate kinase PKM): > 3000 nM

C=C1C(=O)O[C@H]2[C@H]1CC/C(COC(=O)N1CCCC1)=C\CC[C@@]1(C)O[C@@H]21
pIC50 (T-cell): 5.75
AC50 (Pyruvate kinase PKM): 736 nM

From ChEMBL document CHEMBL5550146, “Design, synthesis, and biological evaluation of novel sesquiterpene lactone derivatives as PKM2 activators with potent anti-ulcerative colitis activities” (Eur J Med Chem, 2024)
